Measured values from patent US20240099214A1, “PLANT DEFENCE GENE EXPRESSION” (UPL Corporation Limited, priority 2021, published 2024).

Legend:
[1] = system: AY093595.1 (gene 13, PR protein); test: qRT-PCR expression of gene 13 in tomato leaves; type: in vivo, Tomato ecotype corbarino; design: key: relative expression normalized to a-tubulin housekeeping gene
Protocol: (§1) Tomato ecotype “corbarino” reported to be susceptible to TSWV infection was used in the experiment. Plants were grown in pots in a climatic chamber with a photoperiod of 16/8 hour at 25° C.
(§2) The viral strain (TSWV PV PV-0393) was utilized in the experiment. The virus was mechanically inoculated and propagated on tomato “corbarino”. The inoculum was prepared in an ice-cooled mortar grounding 1 gr of infected tomato tissue in 10 ml of Na-phosphate buffer 0.01M. The fresh prepared inoculum was stored in ice before use. Tomato plants at BBCH16 were dusted with Carborundum 600 mesh and selected leaves were rubbed with some droplets of inoculum. After 5 min. plants were sprayed with sterile water to remove the excess of inoculum and preserve the cell turgor.
(§3) Four treatments were compared: i) Mock inoculated; ii) TSWV; iii) 0.25% Laminarin; iv) 0.25% Laminarin+TSWV. In the last treatment the virus was inoculated 24 hrs after the laminarin application.
(§4) Total RNA was extracted from systemic infected tomato leaves by using the Quick-RNA Plant Kit (Zymo Research) following the manufacturer instructions. The extractions were carried out using three plants after 12 h, 24 h, 48 h, 72 h, 7 days after inoculation. Leaves were instantly frozen in liquid nitrogen after cutting to avoid any deterioration of the sample as well as any defense reaction. The RNA concentration was quantified by measuring the absorbance at 260 nm using a Nanodrop 2000 (Thermofisher). The purity of all of the RNA samples was assessed at an absorbance ratio of OD260/280 and OD260/230, while its structural integrity was checked by agarose gel electrophoresis. Only high-quality RNA with OD 260/280 and OD 260/230>2 was used for subsequent steps. Single-stranded cDNA was synthesized from 1 μg of total RNA using an iScript™ Select cDNA Synthesis Kit and random hexamers as primers (Bio-Rad, Milan, Italy), according to the manufacturer's instructions. Three biological replicates were created from the 3 leaves collected to test 15 genes. Alpha tubulin was used as reference gene.
(§5) qPCR reactions were performed with BioRad (Applied Biosystems, Foster City, CA, USA) using SYBR R Green. Each reaction was performed in 20 μl containing 10 μl of 2× Power SYBR Green PCR Master Mix (Life Technologies), 0.2-0.3 μM primers and cDNA samples diluted 1:20. Each qPCR reaction was performed in triplicate. Reactions were run using the cycling parameter described previously (Reid et al., 2006) and the qPCR data were analyzed by the Ct method (Pfaffl, 2001). In order to analyze the qPCR data, a-tubulin gene was used as housekeeping to determine the relative expression level of the other genes analyzed in this work. For the determination of qPCR efficiency of each primer pairs, a standard curve was performed using the following cDNA dilutions: 1:4, 1:16, 1:64; 1:256 and 1:1024. Every measurement was made in triplicate. The corresponding qPCR efficiencies (E) were calculated for every primer pair with the software 7300 System SDS software (Applied Biosystems, Foster City, CA, USA) according to the equation E=(10−1/slope−1)×100 (Rutledge and Stewart, 2008).
(§6) The significance of the differences between the gene expressions levels were compared by one-way ANOVA (p=0.01) and the means were separated by Tukey post-hoc test using SPSS ver.26 ([…]).

[2] = system: Hypersensitive response assisting protein (gene 7, Solyc07g006570.2); test: qRT-PCR expression of gene 7 in tomato leaves; type: in vivo, Tomato ecotype corbarino; design: key to RQ1 / RQ2 / RQ3 / RQ mean: relative expression normalized to a-tubulin housekeeping gene
Protocol: as §1, §2, §3, §4, §5, §6

[3] = Gene_13, 12 hr, treatment Laminarin
[4] = Gene_13, 12 hr, treatment Laminarin + virus
[5] = Gene_13, 24 hr, treatment Laminarin
[6] = Gene_13, 24 hr, treatment Laminarin + virus
[7] = Gene_13, 48 hr, treatment Laminarin
[8] = Gene_13, 48 hr, treatment Laminarin + virus
[9] = Gene_13, 72 hr, treatment Laminarin
[10] = Gene_13, 72 hr, treatment Laminarin + virus

laminarin
RQ1 [1, 3]: 0.9025
RQ2 [1, 3]: 11.021
RQ3 [1, 3]: 12.323
RQ mean [1, 3]: 10.790
RQ1 [1, 4]: 13.339
RQ2 [1, 4]: 10.934
RQ3 [1, 4]: 11.013
RQ mean [1, 4]: 11.762
RQ1 [1, 5]: 13.750
RQ2 [1, 5]: 14.763
RQ3 [1, 5]: 13.300
RQ mean [1, 5]: 13.938
RQ1 [1, 6]: 13.085
RQ2 [1, 6]: 11.438
RQ3 [1, 6]: 12.395
RQ mean [1, 6]: 12.306
RQ1 [1, 7]: 31.999
RQ2 [1, 7]: 13.498
RQ3 [1, 7]: 29.839
RQ mean [1, 7]: 25.112
RQ1 [1, 8]: 25.291
RQ2 [1, 8]: 0.8970
RQ3 [1, 8]: 28.993
RQ mean [1, 8]: 21.085
RQ1 [1, 9]: 45.838
RQ2 [1, 9]: 96.757
RQ3 [1, 9]: 93.370
RQ mean [1, 9]: 78.655
RQ1 [1, 10]: 53.674
RQ2 [1, 10]: 42.556
RQ3 [1, 10]: 49.901
RQ mean [1, 10]: 48.710
RQ1 ([2]; 12 hr, Laminarin + virus): 12.106
RQ2 ([2]; 12 hr, Laminarin + virus): 0.8295
RQ3 ([2]; 12 hr, Laminarin + virus): 10.421
RQ mean ([2]; 12 hr, Laminarin + virus): 10.274
RQ1 ([2]; 12 hr, Laminarin alone): 0.9749
RQ2 ([2]; 12 hr, Laminarin alone): 0.8446
RQ3 ([2]; 12 hr, Laminarin alone): 0.8747
RQ mean ([2]; 12 hr, Laminarin alone): 0.8981
RQ1 ([2]; 24 hr, Laminarin + virus): 13.380
RQ2 ([2]; 24 hr, Laminarin + virus): 12.897
RQ3 ([2]; 24 hr, Laminarin + virus): 10.449
RQ mean ([2]; 24 hr, Laminarin + virus): 12.242
RQ1 ([2]; 24 hr, Laminarin alone): 11.623
RQ2 ([2]; 24 hr, Laminarin alone): 12.446
RQ3 ([2]; 24 hr, Laminarin alone): 12.085
RQ mean ([2]; 24 hr, Laminarin alone): 12.051
gene 7 expression compared to TSWV treatment ([2]; 48 hr, 0.25% laminarin + TSWV inoculated 24 hrs later): inverted
gene 7 expression compared to TSWV treatment ([2]; 48 hr, 0.25% laminarin alone): inverted
RQ1 ([2]; 48 hr, Laminarin + virus): 0.7159
RQ2 ([2]; 48 hr, Laminarin + virus): 0.5334
RQ3 ([2]; 48 hr, Laminarin + virus): 0.8167
RQ mean ([2]; 48 hr, Laminarin + virus): 0.6886
RQ1 ([2]; 48 hr, Laminarin alone): 0.7103
RQ2 ([2]; 48 hr, Laminarin alone): 0.7130
RQ3 ([2]; 48 hr, Laminarin alone): 0.6351
RQ mean ([2]; 48 hr, Laminarin alone): 0.6861
RQ1 ([2]; 72 hr, Laminarin + virus): 19.008
RQ2 ([2]; 72 hr, Laminarin + virus): 20.416
RQ3 ([2]; 72 hr, Laminarin + virus): 14.535
RQ mean ([2]; 72 hr, Laminarin + virus): 17.986
RQ1 ([2]; 72 hr, Laminarin alone): 10.549
RQ2 ([2]; 72 hr, Laminarin alone): 0.4677
RQ3 ([2]; 72 hr, Laminarin alone): 11.927
RQ mean ([2]; 72 hr, Laminarin alone): 0.9051
gene 7 overexpression compared to TSWV treatment ([2]; 72 hr, other treatments (laminarin alone, laminarin+TSWV) versus TSWV): overexpression induced by the TSWV is higher compared to the other treatments
